According to patent US20240189315A1, “Cyclic Pyridine Derivatives as cGAS Inhibitors” (Boehringer Ingelheim International GmbH, priority 2022, published 2024):
Like-named read-outs stand apart in the source and are kept apart here.

Tests used:
[1] = test system: pathway directly downstream of cGAS in cGAMP-stimulated THP1-Dual cells; test: cGAMP stimulated counter cell assay (THP1(cGAMP) IC50): IFN induction in cGAMP-stimulated THP1-Dual cells; type: cell-based, human; settings: Homo sapiens, THP1-Dual; Table 3; Compound No. 5 of WO 2022/174012; read-out: THP1(cGAMP) IC50
How it was run: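 THP1-Dual cells with IRF-driven Lucia luciferase reporter, stimulated by empty baculovirus (cGAS route) or by cGAMP (counter assay); 5000 cells/well, 8-point dilutions from 10 μM top, 1% DMSO, 18 h at 37° C. Luminescence read; IC50 by 4-parameter logistic fit against unstimulated low control.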

[2] = test system: THP-1; settings: Table 3, page 67/68 of WO 2022/174012; read-out: cellular IC50-value group (IFNβ ELISA stimulated with THP-1); cited from earlier work
[3] = target: T1, cellular cGAS activity in baculovirus-stimulated THP1-Dual cells (Homo sapiens (Human), UniProt Q8N884); test: Human cGAS cell assay (THP1(vir) IC50): IFN induction in virus-stimulated THP1-Dual cells, IRF Lucia luciferase reporter;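 also: Eight-point dilution series starting at 10 µM, 1% DMSO, 18 h at 37 °C, luminescence read-out, virus-free wells as 0% and DMSO-treated virus-stimulated wells as 100%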; type: cell-based; settings: Table 3; Compound No. 5 of WO 2022/174012; read-out: THP1(vir) IC50
T1 sequence (Q8N884 whole entry): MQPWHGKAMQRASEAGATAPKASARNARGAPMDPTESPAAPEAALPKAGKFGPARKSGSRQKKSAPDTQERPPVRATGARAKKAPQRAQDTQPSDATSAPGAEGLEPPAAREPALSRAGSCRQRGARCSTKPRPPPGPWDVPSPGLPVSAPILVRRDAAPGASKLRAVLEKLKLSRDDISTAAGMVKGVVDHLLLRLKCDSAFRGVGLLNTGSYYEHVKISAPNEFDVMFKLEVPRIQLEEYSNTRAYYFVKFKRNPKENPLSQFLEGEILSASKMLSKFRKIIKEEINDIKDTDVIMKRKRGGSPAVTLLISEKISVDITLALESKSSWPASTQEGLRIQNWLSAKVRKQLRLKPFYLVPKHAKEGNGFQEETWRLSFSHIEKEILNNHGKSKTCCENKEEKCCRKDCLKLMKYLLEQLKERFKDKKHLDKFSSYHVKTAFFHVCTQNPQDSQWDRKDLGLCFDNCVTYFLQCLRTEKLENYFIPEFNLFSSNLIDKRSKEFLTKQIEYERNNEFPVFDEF

[4] = target: Human cGAS enzyme (Homo sapiens (Human), UniProt Q8N884); test: Human cGAS enzyme assay (hcGAS IC50, in vitro), cGAMP formation by RapidFire MS;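 also: recombinant human cGAS activated by 45 bp dsDNA with 30 µM each ATP and GTP, 90 min, cGAMP vs cyclic-di-GMP standard by MS, 8-point titration from 10 µM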; type: biochemical; settings: Table 3; Compound No. 5 of WO 2022/174012 re-tested in the applicant's assay
Chain of Human cGAS enzyme (Q8N884 whole entry): as above

[5] = amide bond, HATU, 25.0 °C, 1.0 h
[6] = target: T1, cellular cGAS activity in baculovirus-stimulated THP1-Dual cells; settings: Table 4; compounds and methyl ester prodrugs of PCT/EP2022/062480 and PCT/EP2022/062496; read-out: THP1(vir) IC50; cited from earlier work
[7] = test system: pathway directly downstream of cGAS in cGAMP-stimulated THP1-Dual cells; settings: Table 4; compounds and methyl ester prodrugs of PCT/EP2022/062480 and PCT/EP2022/062496; cited from earlier work
[8] = target: cellular cGAS activity in dsDNA-stimulated human whole blood (Homo sapiens (Human), UniProt Q8N884); settings: Table 4; compounds and methyl ester prodrugs of PCT/EP2022/062480 and PCT/EP2022/062496; read-out: hWB IC50; cited from earlier work
Chain of cellular cGAS activity in dsDNA-stimulated human whole blood (Q8N884 whole entry): as above

Compound | IC50 [6] [nM] | IC50 [7] [nM] | IC50 [8] [nM] | further results
Cc1nc(N2C[C@@H](CC(=O)Nc3ccc(-c4ccccc4)cc3)C[C@H]2C(=O)O)c2oc3ccccc3c2n1 [Compound 5 (BBL0100455), reference compound] | – | – | – | IC50 [1]: > 10000 nM; IC50 [2]: < 1000 nM; IC50 [3]: > 10000 nM; IC50 [4]: 55 nM
C[C@H]1CN2CC[C@]1(F)c1cc(Cl)cnc1O[C@H]1C[C@@H](C(=O)OC(C)(C)C)N(C1)c1nc(nc3c1oc1ccccc13)CC(=O)NCCOC2=O | – | – | – | ring closure, yield of all isomers ([5]; from C[C@H]1CN(C(=O)OCCN)CC[C@]1(F)c1cc(Cl)cnc1O[C@H]1C[C@@H](C(=O)OC(C)(C)C)N(c2nc(CC(=O)O)nc3c2oc2ccccc23)C1, DMA, 15.75 mM): 11.3%
C[C@H]1CN2CC[C@]1(F)c1cc(Cl)cnc1O[C@H]1C[C@@H](C(=O)OC(C)(C)C)N(C1)c1nc(nc3c1oc1ccccc13)CC(=O)NCCCC2=O | – | – | – | ring closure, yield of all isomers ([5]; from C[C@H]1CN(C(=O)CCCN)CC[C@]1(F)c1cc(Cl)cnc1O[C@H]1C[C@@H](C(=O)OC(C)(C)C)N(c2nc(CC(=O)O)nc3c2oc2ccccc23)C1, DMF, 10.0 mM): 42%
COC(=O)[C@@H]1C[C@H](Oc2ncc(Cl)cc2[C@@]2(F)CCS(=O)(=O)C[C@@H]2C)CN1c1nc(C(F)F)nc2c1oc1ccccc12 [P02 of PCT/EP2022/062496] | 29 | > 16600 | 140 | –
COc1ncccc1-c1cnc(O[C@H]2C[C@@H](C(=O)O)N(c3nc(C(F)(F)F)nc4c3oc3ccccc34)C2)c(N2CCOC3(COC3)[C@@H]2C)c1 [Ex. 3.14 of PCT/EP2022/062480] | 10 | 7830 | 26 | –
COC(=O)[C@@H]1C[C@H](Oc2ncc(Cl)cc2[C@@]2(OC)CC(C)(C)S(=O)(=O)C[C@@H]2C)CN1c1nc(C(F)F)nc2c1oc1ccccc12 [P03 of PCT/EP2022/062496] | 202 | 20600 | 1990 | –
C[C@H]1CS(=O)(=O)CC[C@]1(F)c1cc(Cl)cnc1O[C@H]1C[C@@H](C(=O)O)N(c2nc(C(F)F)nc3c2oc2ccccc23)C1 [Ex. 1.13 of PCT/EP2022/062496] | 6 | 22500 | 6 | –
C[C@@H]1N(c2cccnc2O[C@H]2C[C@@H](C(=O)O)N(c3nc(C(F)F)nc4c3oc3ccccc34)C2)CCOC12COC2 [Ex. 4.04 of PCT/EP2022/062480] | 386 | > 16600 | 77 | –
